Reference: patent publication US20020197714A1, “Composition and method for increasing cell density in cell cultures infected with lentivirus” (Wyeth, priority 2001, published 2002)

System: Fet-J cells chronically infected with feline immunodeficiency virus (FIV)
Assay: Cell density of FIV-infected Fet-J suspension cultures supplemented with antibiotics (trypan blue exclusion on hemacytometer)
Type: cell-based
Details: for Cell density Day 1 / Cell density Day 2 / Cell density Day 3 / Cell density Day 4 / Cell density Day 5: antibiotic 30 micrograms/mL in serum free media, planted at 3×10^5 viable cells/mL; for Effect on growth / cell density compared with cultures without antibiotic (in words): antibiotic 30 micrograms/mL, Days 1-5
Procedure: In this example, Fet-J cells chronically infected with feline immunodeficiency virus (FIV) were grown in serum free media such as modified DMEM:F12 Media or AIM V media, supplemented with 2.5 mg/mL of ALBUMAX®, which is derived from BSA. Cells were grown in suspension in Erlenmeyer flasks on a rotary shaker at 150 rpm at 37° C. Cells were planted at a cell density of 3×10^5 viable cells/mL. Cell densities were determined by trypan blue exclusion on hemacytometer. Gp 120 expression determination was accomplished by enzyme linked immunosorbent assay (ELISA) using anti-FIV Gp 120 monoclonal antibodies. The antibiotics assessed for FIV supplementation included gentamycin, neomycin and polymixin B. Media were spiked with respective antibiotics at a concentration of 30 micrograms/mL. Cell densities were determined on a 24 hour basis by the method described above.

Substance	Cell density Day 1	Cell density Day 2	Cell density Day 3	Cell density Day 4	Cell density Day 5	Effect on growth / cell density compared with cultures without antibiotic (in words)
gentamycin	2.4 × 10^5 cell/mL	3.2 × 10^5 cell/mL	6.5 × 10^5 cell/mL	1.1 × 10^6 cell/mL	1.1 × 10^6 cell/mL	no significant effect
neomycin	4.7 × 10^5 cell/mL	7.8 × 10^5 cell/mL	1.2 × 10^6 cell/mL	1.3 × 10^6 cell/mL	1.8 × 10^6 cell/mL	best overall growth and increase in cell densities
polymixin B	2.9 × 10^5 cell/mL	4.6 × 10^5 cell/mL	5.8 × 10^5 cell/mL	6.6 × 10^6 cell/mL	6.6 × 10^5 cell/mL	suppressed cell density
